For orientation: IC50 means the point on the concentration scale where inhibition reaches its midpoint.

For data set [1], the system named is malignant pleural mesothelioma cell EHMES-10. Kind of data set: Calculation of IC50 value, cell survival with Cell Counting Kit 8. The format is cell-based. The conditions noted are these: five days after transfection. As for the experimental part: The IC50 value of miR-3140-3p was calculated with malignant pleural mesothelioma cell EHMES-10.
The protocol therefor is shown below.
1: To 25 μL of serum free medium (SFM) was added 0.25 μL of RNAiMAX (Invitrogen).
2: miR-Control and miR-3140-3p were serially diluted so that the final concentrations will be 40 nM, 20 nM, 10 nM, 5 nM, 1 nM, 500 pM, 100 pM, 50 pM, 10 pM, 5 pM, and 1 pM, and mixed with SFM/RNAiMAX complex.
(§1) 3: This was incubated at room temperature for 20 minutes.
4: 75 μL of each of cells at 6.7×10^4 cells/mL were added to each well.
(§2) 5: This was incubated at 37° C. under 5% CO2 condition.
6: Five days after transfection, the survival rates of cells were investigated with Cell Counting Kit 8 (DOJINDO). The protocol therefor is shown below.
(i) Cell Counting Kit was diluted 10-folds with a medium.
(ii) 200 μL of each of the diluted Cell Counting Kit was added to each well.
(iii) This was incubated at 37° C. under 5% CO2 condition for 1 hour.
(iv) The values at 450 nm/600 nm were measured with a plate reader.
Note that the same control RNA as that used in Experiment 7 was employed as the control.

The subject of data set [2] is large intestine cancer cell strain HT29. Kind of data set: Cell growth inhibition, cell count after transfection. The format is cell-based. The settings on record: HT29, final concentration 10.0 nM, seven days after transfection, FIG. 12. As for the experimental part:
(§3) miR-3140-3p was transfected into large intestine cancer cell strains (SW620, SW480, and HT29), and cell proliferation was observed. Transfection was carried out with the following protocol.
(§4) 1: To a 35 mm dish were added 500 μL of serum free medium (SFM) and 5 μL of RNAiMAX (Invitrogen).
(§5) 2: To the solution from 1 was added 12.5 μL each of miR-Control or miR-3140-3p, miR-22-3p, and miR-34a-5p (stock conc. 2 μM) (final concentration 10.0 nM).
as §1
(§6) 4: 1.5 mL of a cell suspension diluted to 6.7×10^4 cells/mL was added to the 35 mm dish.
as §2
(§7) 6: The cells were counted seven days after transfection.
(§8) Setting the number of control introduction cells as 100%, the survival rate of cells in which miR-3140-3p was introduced was shown in %.

The subject of data set [3] is large intestine cancer cell strain SW480. Described as above. The format is cell-based. The conditions noted are these: SW480, final concentration 10.0 nM, seven days after transfection, FIG. 12. As for the experimental part:
as §3, §4, §5, §1, §6, §2, §7, §8

The subject of data set [4] is large intestine cancer cell strain SW620. The description is as above. The format is cell-based. The conditions noted are these: SW620, final concentration 10.0 nM, seven days after transfection, FIG. 12. As for the experimental part: as §3, §4, §5, §1, §6, §2, §7, §8
Data set [5] concerns malignant pleural mesothelioma cells MSTO-211H. In words: Antitumor effect in vivo, subcutaneous transplantation of MSTO-211H cells. The arrangement: species or system SCID mouse. The conditions noted are these: SCID mice, MSTO-211H subcutaneous, miRNA with A6K at tumor site, 13 administrations, 34 days after transplantation, FIG. 13. As for the experimental part:
In order to verify the antitumor effect of the miRNA of the present invention in vivo, experiments was performed with laboratory animals transplanted with malignant pleural mesothelioma cells.
Malignant pleural mesothelioma cells MSTO-211H cells were used.
(§9) 1: The cells on the dish were washed twice with PBS (-).
(§10) 2: The cells were detached with trypsin.
(§11) 3: This was suspended in a medium, and cells were counted.
(§12) 4: Centrifugation at a condition of 1000 rpm for 3 min was performed to pellet down.
(§13) 5: The cells were resuspended in PBS (-) in order to obtain 2.0×10^7 cells/mL.
(§14) Six weeks-old C-B-17/Icr-scid/scid Jcl (SCID mouse) were used as mice. SCID mice were subcutaneously administered 100 μL of the prepared cell suspension, and the cells were allowed to settle.
(§15) Negative control which is the control sequence and miR-3140-3p which is the miRNA of the present invention were employed. A6K (from 3D Matrix) was employed as the nucleic acid delivery reagent. The administration of miRNA to mice was carried out with the following protocol.
(§16) 1: 100 μM of the nucleic acid (miRNA) was diluted with 10% saline and sterilized water in order to obtain 71.4 μM.
(§17) 2: 1% A6K solution was sonicated for 5 minutes before use.
3: The diluted nucleic acid and the 1% A6K solution were mixed at a proportion of 1:1 to give the administration nucleic acid. […]

Data set [6] relates to lung cancer cell strain (A549). In words: Cell growth inhibition, cell count after transfection. The format is cell-based. The settings on record: A549, final concentration 10.0 nM, six days after transfection, FIG. 11. As for the experimental part: miR-3140-3p was transfected into lung cancer cell strain (A549), and cell proliferation was observed. […] Transfection was carried out with the following protocol.
as §4
2: To the solution from 1 was added 1 μL each of miR-Control or miR-3140-3p, miR-22-3p, and miR-34a-5p (stock conc. 20 μM) (final concentration 10.0 nM).
as §1, §6, §2
6: The cells were counted six days after transfection.

Data set [7] relates to malignant pleural mesothelioma cells EHMES-10. In words: Antitumor effect in vivo, subcutaneous transplantation of EHMES-10 cells. The settings on record: SCID mice, EHMES-10 subcutaneous, 13 administrations. On the set-up: species or system SCID mouse. As for the experimental part:
Malignant pleural mesothelioma cells EHMES-10 cells were used.
as §9, §10, §11, §12, §13, §14, §15, §16, §17
3: The diluted nucleic acid and the 1% A6K solution were mixed at a proportion of 1:1 to give the administration nucleic acid.
4: SCID mice were subcutaneously administered (tumor site) 50 μL each of the administration nucleic acid.
1: From two days after transplantation, the nucleic acid was administered every one or two days. […]

Regarding “miR-3140-3p: Mature-miRNA, AGCUUUUGGGAAUUCAGGUAGU (SEQ ID NO. 2) (listed as RNA, chemistry not given here; listed as Homo sapiens)”, the “growth inhibition effect (survival rates of cells, Cell Counting Kit 8)” value in data set [1] (EHMES-10, 1 pM to 40 nM, FIG. 29) is “growth inhibition effect against malignant pleural mesothelioma cell strain EHMES-10 even at a very low concentration”. Besides, the IC50 in data set [1] (EHMES-10, final concentration, Cell Counting Kit 8) was 0.57 nM. Further, the “cell growth inhibition effect (survival rate of cells, control = 100%)” value in data set [2], in data set [3] and in data set [4] was “extremely high cell growth inhibition effect” in each case. Further, the “tumor weight at endpoint compared to the control group” value is reported as “significantly lower” in data set [5] and “a similar result” in data set [7] (33 days after transplantation, FIG. 16). Besides, the “cell growth inhibition effect (cell count)” value in data set [6] is recorded as “extremely high cell growth inhibition effect”. Besides, the “expansion of the tumor (luciferin imaging) compared to the control group” value in data set [7] (miRNA with A6K at tumor site, imaging at 12, 19, 26, 33 days, FIGS. 14-15) is recorded as “expansion of the tumor was suppressed”.

The values above are taken from US11311568B2, “Therapeutic pharmaceutical composition for cancer including miRNA” (Purmx Therapeutics, Inc., priority 2017, dated 2022).
